Data reported in ChEMBL document CHEMBL1201862, “PubChem BioAssay data set” (2004).
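Following 48 hours of exposure in 96-well plates, responses at five concentrations were used to interpolate endpoints linearly. At the GI50, growth is halved.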 Calls of active or inactive are those of the source. Rule as the data show it: active = GI50 up to about 1.1 µM and inactive = higher.

How the values were obtained:
Test in all cases: NCI tumour cell line growth inhibition, 48 h
[1] = test system: IGROV-1
[2] = test system: HOP-62
[3] = test system: HT-29
[4] = test system: EKVX
[5] = test system: OVCAR-8
[6] = test system: SF-295
[7] = test system: Hs-578T
[8] = test system: MDA-MB-435
[9] = test system: CCRF-CEM
[10] = test system: SK-MEL-2
[11] = test system: K562
[12] = test system: OVCAR-3
[13] = test system: M14
[14] = test system: SW-620
[15] = test system: CAKI-1
[16] = test system: SR
[17] = test system: HCT-15
[18] = test system: PC-3
[19] = test system: SK-MEL-28
[20] = test system: U-251

Structure (SMILES) | GI50 [1] | GI50 [2] | GI50 [3] | GI50 [4] | GI50 [5] | GI50 [6] | GI50 [7] | GI50 [8] | GI50 [9] | GI50 [10] | GI50 [11] | GI50 [12] | GI50 [13] | GI50 [14] | GI50 [15] | GI50 [16] | GI50 [17] [µM] | GI50 [18] | GI50 [19] | GI50 [20]
NC(=O)Cc1ncn(-c2ccccc2)n1 | > 100 µM (inactive) | > 100 µM (inactive) | > 100 µM (inactive) | > 100 µM (inactive) | > 100 µM (inactive) | > 100 µM (inactive) | > 100 µM (inactive) | > 100 µM (inactive) | > 100 µM (inactive) | > 100 µM (inactive) | > 100 µM (inactive) | > 100 µM (inactive) | > 100 µM (inactive) | > 100 µM (inactive) | > 100 µM (inactive) | > 100 µM (inactive) | > 100 | – | – | –
O/N=C1\SC(=N\O)/C(=N/O)S\C1=N/O | > 100 µM (inactive) | > 100 µM (inactive) | > 100 µM (inactive) | > 100 µM (inactive) | > 100 µM (inactive) | > 100 µM (inactive) | – | > 100 µM (inactive) | > 100 µM (inactive) | > 100 µM (inactive) | 51.2 µM (inactive) | > 100 µM (inactive) | > 100 µM (inactive) | > 100 µM (inactive) | > 100 µM (inactive) | 38.2 µM (inactive) | > 100 | > 100 µM (inactive) | > 100 µM (inactive) | > 100 µM (inactive)
C/C=C(\C)c1cc(=O)c2c(C)cc3c(c2o1)C(=O)c1c(O)c(C2CC(C)(N(C)C)C(OC(C)=O)C(C)O2)cc(C2CC(N(C)C)C(O)C(C)O2)c1C3=O (stereo not given) | 0.8 µM (active) | 0.891 µM (active) | 0.324 µM (active) | 1.12 µM (active) | 0.542 µM (active) | 1.06 µM (active) | 2 µM (inactive) | 1.03 µM (active) | 3.12 µM (inactive) | 1.22 µM (inactive) | 0.652 µM (active) | 2.13 µM (inactive) | 0.748 µM (active) | 0.532 µM (active) | 0.265 µM (active) | – | 1.27 | 1.35 µM (inactive) | 1.91 µM (inactive) | 0.49 µM (active)
O=c1c(-c2ccccc2)c(SCCN2CCCC2)n(-c2ccccc2)c(=S)n1-c1ccccc1 | > 100 µM (inactive) | > 100 µM (inactive) | > 100 µM (inactive) | > 100 µM (inactive) | > 100 µM (inactive) | > 100 µM (inactive) | > 100 µM (inactive) | > 100 µM (inactive) | > 100 µM (inactive) | > 100 µM (inactive) | > 100 µM (inactive) | – | > 100 µM (inactive) | > 100 µM (inactive) | > 100 µM (inactive) | – | > 100 | > 100 µM (inactive) | > 100 µM (inactive) | > 100 µM (inactive)
CC(=O)N(C)c1cc(NCc2ccccc2)ccc1OCc1ccccc1 | 16.4 µM (inactive) | 33 µM (inactive) | 20.6 µM (inactive) | 18.5 µM (inactive) | 17.3 µM (inactive) | 15.4 µM (inactive) | 31.4 µM (inactive) | 16.6 µM (inactive) | 23.6 µM (inactive) | 16.9 µM (inactive) | 22.1 µM (inactive) | 16.6 µM (inactive) | 22.1 µM (inactive) | 24.9 µM (inactive) | 17.7 µM (inactive) | 15.5 µM (inactive) | 19.1 | – | 18.9 µM (inactive) | 17.4 µM (inactive)
CCCCCCCCCCCCCCCCCCNc1nc(=O)n(C2CC(O)C(COP(=O)(O)OCC(COP(=O)(O)OC3C(CO)OC(n4ccc(N)nc4=O)C3O)OCCCCCCCCCCCCCCCCCC)O2)cc1F (stereo not given) | 46.8 µM (inactive) | 16.5 µM (inactive) | 79.1 µM (inactive) | > 100 µM (inactive) | 18.6 µM (inactive) | > 100 µM (inactive) | 78.5 µM (inactive) | > 100 µM (inactive) | 0.402 µM (active) | > 100 µM (inactive) | 22.9 µM (inactive) | > 100 µM (inactive) | 31.7 µM (inactive) | > 100 µM (inactive) | 46.3 µM (inactive) | – | 34 | 13.2 µM (inactive) | 69.7 µM (inactive) | 13.3 µM (inactive)
CC1(C)N=C(N)N=C(N)N1c1cccc(C(=O)Nc2ccc(S(=O)(=O)F)cc2)c1 | > 100 µM (inactive) | > 100 µM (inactive) | > 100 µM (inactive) | > 100 µM (inactive) | > 100 µM (inactive) | > 100 µM (inactive) | > 100 µM (inactive) | > 100 µM (inactive) | > 100 µM (inactive) | > 100 µM (inactive) | > 100 µM (inactive) | > 100 µM (inactive) | > 100 µM (inactive) | > 100 µM (inactive) | > 100 µM (inactive) | – | > 100 | > 100 µM (inactive) | > 100 µM (inactive) | > 100 µM (inactive)
